According to patent publication US20260200942A1, “PARP7 INHIBITORS AND THEIR APPLICATIONS” (CHONGQING PHARSCIN INNOBIO CO., LTD., priority 2023, published 2026):
pIC50: −log10 of the molar value.

Key:
[1] = target: T1, PARP7 (Homo sapiens, UniProt Q7Z3E1); test: PARP7 inhibitory activity assay (histone-coated 384-well plate, chemiluminescence); assay type: biochemical
T1 construct: purchased BPS 80527
T1 sequence (Q7Z3E1 1-657): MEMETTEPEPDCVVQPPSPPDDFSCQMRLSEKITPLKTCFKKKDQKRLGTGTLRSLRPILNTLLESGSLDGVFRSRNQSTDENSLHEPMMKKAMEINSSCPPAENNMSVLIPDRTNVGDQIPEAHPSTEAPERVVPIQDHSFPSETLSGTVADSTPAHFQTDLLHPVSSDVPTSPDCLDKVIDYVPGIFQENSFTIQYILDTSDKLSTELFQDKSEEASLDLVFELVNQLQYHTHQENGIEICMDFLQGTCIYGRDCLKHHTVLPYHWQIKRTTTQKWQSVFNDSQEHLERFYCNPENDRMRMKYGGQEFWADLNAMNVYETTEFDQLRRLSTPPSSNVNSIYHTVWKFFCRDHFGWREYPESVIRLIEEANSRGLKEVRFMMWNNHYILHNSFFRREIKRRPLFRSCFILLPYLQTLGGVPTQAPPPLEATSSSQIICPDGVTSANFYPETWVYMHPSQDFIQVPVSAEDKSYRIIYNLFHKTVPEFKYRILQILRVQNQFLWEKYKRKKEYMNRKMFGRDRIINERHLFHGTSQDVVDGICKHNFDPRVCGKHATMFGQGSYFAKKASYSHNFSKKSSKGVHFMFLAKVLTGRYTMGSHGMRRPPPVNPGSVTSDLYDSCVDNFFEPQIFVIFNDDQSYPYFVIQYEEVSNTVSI
Description: Inhibition rate (%) calculation formula: […]

[2] = target: T2, PARP2 (Homo sapiens, UniProt Q9UGN5); test: PARP2 inhibitory activity assay (BPS PARP2 Chemiluminescent Activity Assay Kit); assay type: biochemical
T2 construct: purchased BPS Bioscience
Description: The PARP2 enzyme activity assay method used in the present disclosure employs reagents from the PARP2 Chemiluminescent Activity Assay Kit from BPS Bioscience, USA. […] The test results are shown in Table 1. /” indicates not tested.

[3] = Liver microsomal stability study, human; assay type: in vitro ADME; details: Human liver microsomes
Method: (§1) The above compounds were diluted to a 1.5 μM intermediate working solution with 0.1 M potassium phosphate buffer containing 0.75 mg/mL liver microsomes, and then 30 μL of the intermediate working solution was dispensed into reaction plates for different time points (0, 5, 15, 30, 45, 60 min). 150 μL of methanol solution containing internal standard was added to the 0 min plate wells. For the other time points (5, 15, 30, 45, 60 min), the sample plates were pre-incubated at 37° C. for 5 min, after which the reaction was initiated with 15 μL of 6 mM NADPH solution and timing was started. 15 μL of 6 mM NADPH solution was added to the 0 min samples to balance the system. At 5 min, 15 min, 30 min, 45 min, and 60 min, respectively, 150 μL of methanol solution containing internal standard was added to the reaction wells to terminate the reaction. After the reaction was complete, the plates were shaken on a shaker at 600 rpm for 10 min, then centrifuged at 4000 rpm for 15 min. 80 μL of supernatant from each well was transferred to a 96-well sample plate containing 150 μL of ultrapure water, mixed, and then analyzed by LC/MS to calculate T1/2.

[4] = Liver microsomal stability study, rat; assay type: in vitro ADME; details: Rat liver microsomes
Method: as §1

[5] = Liver microsomal stability study, mouse; assay type: in vitro ADME; details: Mouse liver microsomes
Method: as §1

T2 sequence (Q9UGN5 whole entry): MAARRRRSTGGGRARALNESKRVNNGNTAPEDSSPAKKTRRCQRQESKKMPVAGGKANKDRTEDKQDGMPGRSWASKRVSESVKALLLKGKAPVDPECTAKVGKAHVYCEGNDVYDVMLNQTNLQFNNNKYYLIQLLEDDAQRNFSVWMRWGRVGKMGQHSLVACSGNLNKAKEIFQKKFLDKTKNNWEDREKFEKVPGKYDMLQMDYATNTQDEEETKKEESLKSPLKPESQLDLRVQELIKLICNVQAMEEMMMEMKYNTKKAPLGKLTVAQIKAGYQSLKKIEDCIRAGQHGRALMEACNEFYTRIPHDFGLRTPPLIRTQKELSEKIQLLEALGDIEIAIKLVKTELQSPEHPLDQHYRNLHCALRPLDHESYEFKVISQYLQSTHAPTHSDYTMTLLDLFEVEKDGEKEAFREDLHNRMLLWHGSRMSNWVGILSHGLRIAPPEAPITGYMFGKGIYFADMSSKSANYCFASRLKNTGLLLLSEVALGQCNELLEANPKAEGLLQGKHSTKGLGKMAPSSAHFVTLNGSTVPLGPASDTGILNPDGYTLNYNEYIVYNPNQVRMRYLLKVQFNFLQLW

| Structure (SMILES) | pIC50 [1] | pIC50 [2] | half-life at 1 µM [3] | half-life at 1 µM [4] | half-life at 1 µM [5] |
| --- | --- | --- | --- | --- | --- |
| CC(C)(N[C@H]1C[C@H](C(=O)N2CCN(c3ncc(C(F)(F)F)cc3C(N)=O)CC2)C1)c1cc(C(F)(F)F)c(=O)[nH]n1 [Embodiment 60, 2-(4-((1R,3R)-3-((2-(6-oxo-5-(trifluoromethyl)-1,6-dihydropyridazin-3-yl)propan-2-yl)amino)cyclobutane-1-carbonyl)piperazin-1-yl)-5-(trifluoromethyl)nicotinamide] | > 8.00 | 6.00 to 7.00 | – | – | – |
| Cn1ccc2c(C(F)(F)F)cnc(N3CCN(C(=O)[C@H]4C[C@H](NC(C)(C)c5cc(C(F)(F)F)c(=O)[nH]n5)C4)CC3)c21 [Embodiment 65, 6-(2-(((1R,3R)-3-(4-(1-methyl-4-(trifluoromethyl)-1H-pyrrolo[2,3-c]pyridin-7-yl)piperazine-1-carbonyl)cyclobutyl)amino)propan-2-yl)-4-(trifluoromethyl)pyridazin-3(2H)-one] | – | 6.00 to 7.00 | – | – | – |
| O=c1[nH]cc(CN[C@H]2C[C@H](C(=O)N3CCN(c4ncc(C(F)(F)F)cn4)CC3)C2)cc1C(F)(F)F [Embodiment 13] | 7.00 to 8.00 | – | 0.5 to 1 h | > 1 h | > 1 h |
| CC(C)(N[C@H]1C[C@H](C(=O)N2CCN(c3ncc(C(F)(F)F)c4cc[nH]c34)CC2)C1)c1cc(C(F)(F)F)c(=O)[nH]n1 [Embodiment 64, 4-(trifluoromethyl)-6-(2-(((1R,3R)-3-(4-(4-(trifluoromethyl)-1H-pyrrolo[2,3-c]pyridin-7-yl)piperazine-1-carbonyl)cyclobutyl)amino)propan-2-yl)pyridazin-3(2H)-one] | > 8.00 | 6.00 to 7.00 | – | – | – |
| NC(=O)c1cc(C(F)(F)F)cnc1N1CCN(C(=O)[C@H]2C[C@H](NCc3cc(C(F)(F)F)c(=O)[nH]n3)C2)CC1 [Embodiment 62, 2-(4-((1R,3R)-3-(((6-oxo-5-(trifluoromethyl)-1,6-dihydropyridazin-3-yl)methyl)amino)cyclobutane-1-carbonyl)piperazin-1-yl)-5-(trifluoromethyl)nicotinamide] | > 8.00 | 7.00 to 8.00 | – | – | – |
| CNC(=O)c1cc(C(F)(F)F)cnc1N1CCN(C(=O)[C@H]2C[C@H](NC(C)(C)c3cc(C(F)(F)F)c(=O)[nH]n3)C2)CC1 [Embodiment 67, N-methyl-2-(4-((1R,3R)-3-((2-(6-oxo-5-(trifluoromethyl)-1,6-dihydropyridazin-3-yl)propan-2-yl)amino)cyclobutane-1-carbonyl)piperazin-1-yl)-5-(trifluoromethyl)nicotinamide] | > 8.00 | 6.00 to 7.00 | – | – | – |
| CC(C)(N[C@H]1C[C@H](C(=O)N2CCN(c3ncc(C(F)(F)F)cn3)CC2)C1)c1cc(C(F)(F)F)c(=O)[nH]n1 [Embodiment 48] | > 8.00 | 7.00 to 8.00 | – | – | – |
| O=C(C1CN(Cc2c[nH]c(=O)c(C(F)(F)F)c2)C1)N1CCN(c2ncc(C(F)(F)F)cn2)CC1 [Embodiment 14] | 7.00 to 8.00 | – | > 1 h | > 1 h | > 1 h |
| COc1cc(C(F)(F)F)cnc1N1CCN(C(=O)C2CN(Cc3cc(C(F)(F)F)c(=O)[nH]n3)C2)CC1 [Embodiment 46, 6-((3-(4-(3-methoxy-5-(trifluoromethyl)pyridin-2-yl)piperazine-1-carbonyl)azetidin-1-yl)methyl)-4-(trifluoromethyl)pyridazin-3(2H)-one] | > 8.00 | 7.00 to 8.00 | – | – | – |
| O=C(C1CN(Cc2cc(C(F)(F)F)c(=O)[nH]n2)C1)N1CCN2c3ncc(C(F)(F)F)cc3COC[C@H]2C1 [Embodiment 42, (R)-4-(trifluoromethyl)-6-((3-(3-(trifluoromethyl)-7,7a,8,9,10,11-hexahydro-5H-pyrazino[2,1-c]pyrido[2,3-e][1,4]oxazepine-9-carbonyl)azetidin-1-yl)methyl)pyridazin-3(2H)-one] | 7.00 to 8.00 | – | – | – | – |
| C[C@@H](CN1CC[C@H](C(=O)N2C3CCC2CN(c2ncc(C(F)(F)F)cn2)C3)C1)Nc1cn[nH]c(=O)c1C(F)(F)F [Embodiment 6] | 7.00 to 8.00 | – | – | – | – |
| C[C@H]1CN(C(=O)C2CN(Cc3c[nH]c(=O)c(C(F)(F)F)c3)C2)CCN1c1ncc(C(F)(F)F)cn1 [Embodiment 26] | 7.00 to 8.00 | – | – | – | – |
| O=c1[nH]cc(CN[C@H]2C[C@H](C(=O)N3C4CCC3CN(c3ncc(C(F)(F)F)cn3)C4)C2)cc1C(F)(F)F [Embodiment 4] | 7.00 to 8.00 | – | 0.5 to 1 h | > 1 h | > 1 h |
| O=c1[nH]nc(CN[C@H]2C[C@H](C(=O)N3C4CCC3CN(c3ncc(C(F)(F)F)cn3)C4)C2)cc1C(F)(F)F [Embodiment 3] | 7.00 to 8.00 | – | > 1 h | > 1 h | > 1 h |
| Cc1cc(C(F)(F)F)cnc1N1CCN(C(=O)[C@H]2C[C@H](NCc3cc(C(F)(F)F)c(=O)[nH]n3)C2)CC1 [Embodiment 53] | 7.00 to 8.00 | – | – | – | – |
| C[C@@H]1CN(c2ncc(C(F)(F)F)cn2)CCN1C(=O)[C@H]1C[C@H](NCc2c[nH]c(=O)c(C(F)(F)F)c2)C1 [Embodiment 8] | 7.00 to 8.00 | – | – | – | – |
| O=c1[nH]nc(CN[C@H]2C[C@H](C(=O)N3CCN4c5ncc(C(F)(F)F)cc5COC[C@H]4C3)C2)cc1C(F)(F)F [Embodiment 39] | 7.00 to 8.00 | – | – | – | – |
| O=c1cc(C(F)(F)F)c(CN[C@H]2C[C@H](C(=O)N3CCN(c4ncc(C(F)(F)F)cn4)CC3)C2)n[nH]1 [Embodiment 55] | 5.00 to 6.00 | – | – | – | – |
| O=c1[nH]nc(CN[C@H]2C[C@H](C(=O)N3CCN4c5ncc(C(F)(F)F)cc5OCC[C@@H]4C3)C2)cc1C(F)(F)F [Embodiment 38] | 7.00 to 8.00 | – | – | – | – |
| COc1cc(C(F)(F)F)cnc1N1CCN(C(=O)[C@H]2C[C@H](NC(C)(C)c3cc(C(F)(F)F)c(=O)[nH]n3)C2)CC1 [Embodiment 59] | 7.00 to 8.00 | – | – | – | – |
| O=C([C@@H]1CCCN(Cc2c[nH]c(=O)c(C(F)(F)F)c2)C1)N1CCN(c2ncc(C(F)(F)F)cn2)CC1 [Embodiment 22] | 7.00 to 8.00 | – | – | – | – |
| CCOc1cc(C(F)(F)F)cnc1N1CCN(C(=O)[C@H]2C[C@H](NC(C)(C)c3cc(C(F)(F)F)c(=O)[nH]n3)C2)CC1 [Embodiment 58] | 7.00 to 8.00 | – | – | – | – |
| O=C(C1CN(Cc2cc(C(F)(F)F)c(=O)[nH]n2)C1)N1CCN(c2ccc(C(F)(F)F)cn2)CC1 [Embodiment 32] | 7.00 to 8.00 | – | – | – | – |
